Results on five compounds are retold here after patent EP2177533A1, “Multiple N-methylated cyclic hexapeptides for treatment of neurogenic inflammation” (TU München, priority 2008, dated 2010).

The conditions of data set [1]: cited from earlier work.
The conditions of data set [2]: cited from earlier work. The source holds these as a separate data set.
Data set [3] relates to peripheral terminals of sensory nerves of the isolated rat trachea. Put plainly: Electrical field stimulation-induced CGRP release from sensory nerve terminals of the isolated rat trachea (RIA). Particulars: 500 nM; for EFS-evoked increase in the outflow of CGRP: stimulated and post-stimulated fractions vs control; for CGRP release in % compared to the prestimulated fraction: total CGRP release in stimulated and poststimulated fractions together vs basal outflow, n=5, mean with spread. The protocol: (§1) • Figure 1 provides a graphical representation of the effect of some compounds of the present invention on electrical field stimulation (EFS; 40 V, 0.1 ms, 10 Hz for 120 s; 1200 pulses)-induced calcitonin gene-related (CGRP) release from sensory fibres of the isolated rat tracheae. Each column represents the mean±s.e.m. CGRP concentration measured in the incubation medium of the prestimulated, stimulated and poststimulated 8-minute fractions of n = 5 experiments (5 x 2 tracheae/group). Analogs were added to the incubation medium (500 nM) at the beginning of the second and third fractions. *P<0.05, **P<0.01, vs. respective fraction of the control experiment (Mann-Whitney U-test). • Figure 2 provides a graphical representation of the effect of small peptide somatostatin analogs on 1% mustard oil-induced acute neurogenic plasma protein extravasation in the dorsal skin of the rat paw. Each column represents the mean±s.e.m. Evans blue accumulation per g wet skin of n = 6-10 experiments. Analogs were injected i.p. (100 µg/kg) 10 min before the induction of the inflammation. *P<0.05 vs. solvent-treated control experiment (Mann-Whitney U-test).
The activities of the above described synthetic somatostatin analogs were determined by means of an in vitro pharmacological assay on the release of the sensory neuropeptide CGRP from the peripheral terminals of sensory nerves of the isolated rat trachea. This experimental model was established more than 10 years ago (Helyes et al. (1997) Br. J. Pharmacol. 121, 613-615; Szolcsányi et al. (1998) Br. J. Pharmacol. 123, 936-942; Szolcsányi et al. (1998) Br. J. Pharmacol. 125, 916-922; Helyes et al. (2004) Arthr. Rheum., 50, 1677-1685; Bölcskei et al. (2005) Pain 117, 368-376; Helyes et al. (2007) Am. J. Physiol. Lung Cell. Mol. Physiol. 292, L1173-81; Nemeth et al. (1998) Eur. J. Pharmacol, 347, 101-104.) and it represents a reliable and sensitive technique for the investigation of drug effects at the level of peripheral nerve endings. Electrical field stimulation parameters are used to induce CGRP release that is selective for capsaicin-sensitive afferents. Since CGRP is an important mediator of neurogenic inflammation, the effectiveness of compounds in decreasing its electrically-evoked release in vitro may be seen as an indicator for effectiveness to inhibit neurogenic inflammatory reactions in vivo.
Experiments were performed on male Wistar rats bred and kept in the Laboratory Animal Centre of the University of Pécs under standard pathogen free conditions at 24-25 °C and provided with standard rat chow and water ad libitum. The method has been described in detail elsewhere (Helyes et al. (1997) Br. J. Pharmacol. 121, 613-615; Nemeth et al. (1998) Eur. J. Pharmacol. 347, 101-104.). In brief, rats were exsanguinated in deep anesthesia (sodium thiopental, 50 mg/kg i.p.), then the whole trachea was removed and cleaned of fat and adhering connective tissues. Tracheae from two rats were placed into the same organ bath (1.8 ml) to achieve sufficient amount of peptide release and perfused (1 ml/min) with pH- (7.2) controlled oxygenized Krebs solution for 60 min (equilibration period) at 37 °C temperature. After discontinuation of the flow, the solution was changed three times for eight minutes to produce prestimulated, stimulated, poststimulated fractions. In the second 8-min period electrical field stimulation (EFS; 40 V, 0.1 ms, 10 Hz for 120 s; 1200 pulses) was performed to elicit neurotransmitter release. Concentration of CGRP was determined from 200 µL samples of the incubation medium by a selective and specific radioimmunoassay (RIA) technique as described previously in detail (Nemeth et al., 1996; Helyes et al., 1997; Nemeth et al., 1998; Nemeth et al., 1999). Peptide outflow was expressed as the released amount per wet tissue weight. Detection limit of the assay was 0.2 fmol/tube. […]

Data set [4] concerns 1% mustard oil-induced neurogenic plasma protein extravasation in the rat paw skin. It counts as in vivo. Conditions: 100 µg/kg i.p., 10 min before induction of inflammation; rat hindpaw dorsal skin. The protocol:
as §1, with “Analogs were injected i.p. (100 µg/kg) 10 min before the induction of the inflammation. *P<0.05 vs. solvent-treated control experiment (Mann-Whitney U-test).” left out
To confirm the findings of this in vitro study, a further in vivo activity test was performed: Compounds of the invention were examined on 1% mustard oil-induced neurogenic plasma protein extravasation in the rat paw skin.
Both hindlegs of the rats were acutely denervated (the sciatic and the saphenous nerves were cut 30 min before the induction of inflammation) under sodium pentobarbitone (Nembutal, 40 mg/kg i.p.) anaesthesia to avoid central reflexes. Acute neurogenic inflammation in the dorsal skin of the hindpaws was evoked by topical application of 1 % mustard oil dissolved in paraffin oil. Extravasation of plasma albumin was measured by the Evans blue leakage method. Evans blue (50 mg/kg) was injected i.v. and neurogenic inflammation was induced 10 min later. Rats were killed by exsanguination 20 min after mustard oil application. […] The amount of the accumulated Evans blue, which quantitatively correlates with the intensity of plasma extravasation, was expressed as µg dye/g wet tissue (Helyes et al., 1997; Helyes et al., 2001). […]

The conditions of data set [5]: cited from earlier work. The source holds these as a separate data set.

Marks after values point to notes of the source that are not given here.

For `CC(C)[C@@H]1NC(=O)[C@H](CCCCN)NC(=O)[C@@H](Cc2c[nH]c3ccccc23)NC(=O)[C@H](Cc2ccc(O)cc2)NC(=O)[C@H](C)N(C)C(=O)[C@H](Cc2ccccc2)NC1=O` [MK-678-0, c(-MeAYwKVF-)], the “stability in the blood and in the gastrointestinal tract” value in data set [1] is recorded as “quite stable”. Further, the “bioavailability after oral administration” value in data set [2] is listed as 1-3%.

With `CC(C)[C@@H]1NC(=O)[C@H](CCCCN)N(C)C(=O)[C@@H](Cc2c[nH]c3ccccc23)N(C)C(=O)[C@H](Cc2ccc(O)cc2)NC(=O)[C@H](C)N(C)C(=O)[C@H](Cc2ccccc2)N(C)C1=O` [MK-678-1, cyclo(-MeAla-Tyr-D-MeTrp-MeLys-Val-MePhe-)], in data set [3] (poststimulated fraction), the “CGRP outflow in the poststimulated fraction” value is given as “completely abolished”. Also, in data set [3], the “EFS-evoked increase in the outflow of CGRP” value (shortened to “EFS-evoked increase”) is given as “significantly inhibited” and the “CGRP release in % compared to the prestimulated fraction” value is listed as 99,58 ± 39,89** %. In addition, in data set [3] (stimulated fraction, EFS 1200 pulses), the “inhibitory action on CGRP outflow in the stimulated period” value is “about 70%”. Besides, the “µg Evans blue/g wet tissue (mean±s.e.m.)” value in data set [4] is listed as 90.06±10.4* µg Evans blue/g wet tissue.

As for `CC(C)[C@@H]1NC(=O)[C@H](CCCCN)N(C)C(=O)[C@@H](Cc2c[nH]c3ccccc23)N(C)C(=O)[C@H](Cc2ccc(O)cc2)NC(=O)[C@H](C)N(C)C(=O)[C@H](Cc2ccccc2)NC1=O` [MK-678-2, cyclo(-MeAla-Tyr-D-MeTrp-MeLys-Val-Phe-)], in data set [3], the “EFS-evoked increase” value was “significantly inhibited” and the “CGRP release in % compared to the prestimulated fraction” value is recorded as 153,12 ± 29,72* %. Also, the “µg Evans blue/g wet tissue (mean±s.e.m.)” value in data set [4] was 119.92±32.7 µg Evans blue/g wet tissue.

Consider `CC(C)[C@@H]1NC(=O)[C@H](CCCCN)N(C)C(=O)[C@@H](Cc2c[nH]c3ccccc23)NC(=O)[C@H](Cc2ccc(O)cc2)NC(=O)[C@H](C)N(C)C(=O)[C@H](Cc2ccccc2)NC1=O` [MK-678-3, cyclo(-MeAla-Tyr-D-Trp-MeLys-Val-Phe-)], for which, in data set [3], the “EFS-evoked increase” value is recorded as “significantly inhibited” and the “CGRP release in % compared to the prestimulated fraction” value is given as 181,57 ± 54,17* %. Further, the “µg Evans blue/g wet tissue (mean±s.e.m.)” value in data set [4] is 127.13±23.0 µg Evans blue/g wet tissue.

As to Somatostatin, the “half life in serum” value in data set [5] is on record as below 3 min.
